Measured values published in publication PMC10537410 (Pharmaceutics, 2023).

Assay: In vitro dissolution in simulated lung fluid
Type: physicochemical
Details: simulated lung fluid with 0.01% w/v DPPC, ca. 2 mg CsA in 100 mL, 100 r/min, 37 °C, HPLC; n = 3
Experimental: In vitro dissolution was carried out in simulated lung fluid. Simulated lung fluid was prepared with some modifications according to the literature. The composition of simulated lung fluid included NaCl (6.40 g/L), CaCl2·2H2O (0.26 g/L), Na2HPO4 (0.15 g/L), NaHCO3 (2.70 g/L), NH4Cl (0.12 g/L), MgCl2 (0.10 g/L), Na2SO4·10H2O (0.18 g/L), Na3citrate·2H2O (0.16 g/L), Glycine (0.19 g/L), and dipalmitoylphosphatidylcholine (0.01% w/v). Raw CsA and formulation (ca. 2 mg CsA) were dispersed in 100 mL dissolution medium and placed in a magnetic stirrer (MR Hei-Tec, Heidolph, Germany) maintained at 100 r/min and 37 °C. At predetermined intervals, suspensions (0.5 mL) were withdrawn and centrifuged. The supernatants were diluted with 0.5 mL of ethanol and determined by the HPLC method, as described in Section 2.3.

Release amount within 24 h: ≤ 24%
Substance: Cyclosporine A [raw CsA]
